Where a name gives a salt, the structure may show the parent alone. Read-outs that look alike come from different tables or passages of the source.
Tests used:
[1] = dog, in vivo, iv, 12.5 mg/kg
Description: (§1) Formal toxicology studies of intravenously administered isatoribine and orally administered isatoribine and val-isatoribine were conducted in beagle dogs.
(§2) In each case the compound was administered as a solution, by gavage or by intravenous infusion. Multiple parameters were assessed, as is customary in a toxicology study. In the studies providing higher potential exposure to isatoribine, the plasma concentration of isatoribine was assessed by a LC/MS method.

[2] = cited from earlier work
[3] = tested on: Interferon Alpha (Mu-IFN-α); assay: Murine interferon alpha (Mu-IFN-α) in plasma of mice after oral dosing; assay type: in vivo; conditions: for mice with detectable interferon in plasma, of the mice used: mice of Tables 1, 2 and 3, oral dosing
From the text: The normal mouse provides a useful system for the assessment of the degree to which the inventions described herein provide material improvement in the oral delivery of 1 (isatoribine). Not only can one measure the plasma concentrations of isatoribine arising from oral administration of the said prodrug(s) but also the extensive immunological research conducted in the mouse has provided reagents suitable for measuring the levels of interferon alpha, a cytokine of interest reflecting one of the desired biologic activities of isatoribine. […] Table 1 records the results of an assay for murine interferon alpha in the plasma of mice that were dosed two times with isatoribine, formulated in bicarbonate, at a level of 50 mg/kg by the oral route. […] Table 2 records the results of assays for murine interferon alpha in the plasma of mice that first were dosed with bicarbonate and then four hours later were dosed orally with isatoribine, formulated in bicarbonate, at a level of 50 mg/kg. Interferon was reported in the plasma from four mice, including two that had received the bicarbonate vehicle dose. […] Table 3 records the results of assays for murine interferon alpha in the plasma of mice that were dosed orally with val-isatoribine, dissolved in bicarbonate, at a dose that is equivalent to 50/mg/kg of isatoribine on a molar basis. […] Interferon was detected in all mice assayed at a given time point, indicating the reliability of the effect following val-isatoribine administration. […] The data tabulated in Tables 1, 2, and 3 may be also considered from the point of view of the incidence of measurable interferon levels.

[4] = Toxicology studies in dogs: GI tolerance (emesis, loose stool, GI lesions) and isatoribine exposure
Description: as §1, §2

[5] = Systemic exposure to isatoribine after oral administration to beagle dogs (plasma HPLC-MS/MS); assay type: in vivo; conditions: at both 10 and 50 mg/kg dose
Description: The effect of a prodrug (val-isatoribine, 3) on the systemic exposure to isatoribine (1) after oral administration to beagle dogs was investigated. Isatoribine was prepared in sodium bicarbonate solution.
Four male and four female adult beagle dogs weighing between 15 to 27 kg and approximately 1-2 years old were used at the beginning of the study. The animals were divided into 2 groups of 2 males and 2 females each. The test material was administered by gavage on Days 1 and 8, allowing a 7-day washout period between administrations. Blood samples (2 mL) were collected from each animal at predose, 15, 30 minutes, 1, 2, 3, 4, 6, 8 and 10 hours into lithium heparin tubes after each dosing. The plasma was frozen at −70° C. until analysis. The plasma was analyzed for isatoribine by an HPLC-MS/MS assay.
The ratios for the key pharmacokinetic parameters defining the maximum concentration (Cmax) and total exposure as measured by the area under the time-concentration curve (AUC) for the prodrug and the bicarbonate solution at the 50 mg/kg dose are summarized in Table 6.

Caco-2 cells = conditions: human
Description: In vitro drug transport assays using differentiated and P-glycoprotein-expressing Caco2 cell monolayers are widely used to predict absorption rates of candidate drug compounds across the intestinal epithelial cell barrier. See, e.g., Hilgers, A. R. et al., Pharm.
Caco-2 cells (obtained from ATCC) are grown to confluency on permeable membranes in chambers allowing access to both the apical and basolateral sides of the membrane. The intact nature of the resulting cellular membrane is assessed using transepithelial electrical resistance. The test compound is added at a known concentration to the apical side of the membrane and the rate of appearance of the compound on the basolateral side of the membrane is assessed by analysis using either HPLC or LC-MS/MS.

[6] = tested on: Cynomolgus monkey hepatocytes; conditions: 2 h, 10 μm/ml
Description: Hepatocyes often are used to assess the degree to which a compound may be transformed in the body of an animal, and it is known that such transformations may vary with hepatocytes from different species in a way that reflects metabolism in the whole animal.
Cynomolgus monkey hepatocytes were purchased from a commercial supplier and used within 48 hours of preparation. Compounds were prepared in culture media at a concentration of 10 μm/ml and incubated in a standard system with 1,000,000 viable hepatocytes per ml for 2 hours at 37 degrees. The extent of conversion at the end of the incubation period was assessed by measuring 1 by LC-MS/MS.

[7] = dogs, oral isatoribine, 2.5 mg/kg isatoribine equivalent applied dose
[8] = IV isatoribine, 25 mg/kg applied dose
[9] = oral val-isatoribine, 8.1 mg/kg isatoribine equivalent applied dose
[10] = oral val-isatoribine, 16 mg/kg isatoribine equivalent applied dose
[11] = oral val-isatoribine, 32 mg/kg isatoribine equivalent applied dose
[12] = oral val-isatoribine, 64 mg/kg isatoribine equivalent applied dose

CC(C)[C@H](N)C(=O)OC[C@H]1O[C@@H](n2c(=O)sc3c(O)nc(N)nc32)[C@H](O)[C@@H]1O (as salt: hydrochloride) [Compound 3, 5-Amino-3-(5′-O-L-valinyl-β-D-ribofuranosyl)thiazolo[4,5-d]pyrimidine-2,7-dione Dihydrochloride]
melting point: 166 to 168 °C (dec.)

CN[C@H](C(=O)OC[C@H]1O[C@@H](n2c(=O)sc3c(O)nc(N)nc32)[C@H](O)[C@@H]1O)C(C)C (as salt: hydrochloride) [Compound 11, 5-Amino-3-(5′-O-[α-L-N-methylvalinyl]-β-D-ribofuranosyl)thiazolo[4,5-d]pyrimidine-2,7-dione Hydrochloride]
melting point: > 180 °C (dec.)

Nc1nc2c(sc(=O)n2[C@@H]2O[C@H](CO)[C@@H](O)[C@H]2O)c(=O)[nH]1 [Compound 1, 5-amino-3-β-D-ribofuranosylthiazolo[4,5-d]pyrimidine-2,7-dione, reference compound]
Emesis or loose stool [1]: Neg.
GI lesions or irritation [1]: Neg.
Emesis or loose stool [2, 7]: Neg.
GI lesions or irritation [2, 7]: Neg.
GI lesions or irritation ([2]; dogs, oral isatoribine, 5 mg/kg isatoribine equivalent applied dose): Neg.
dogs with multiple, scattered red lesions on the intestinal mucosa (gross histopathologic evaluation) ([2]; orally administered isatoribine at 10 mg/kg): four of eight dogs
interferon in plasma (result in words) ([3]; mice dosed two times with isatoribine in bicarbonate, 50 mg/kg oral, interval of four hours): no interferon was measurable
mice with detectable interferon in plasma, of the mice used [3]: 4 of the 114
Emesis or loose stool [4, 8]: Neg.
GI lesions or irritation [4, 8]: Neg.
GI lesions or irritation ([4]; IV isatoribine, 50 mg/kg applied dose): Neg.
GI lesions or irritation ([4]; IV isatoribine, 100 mg/kg applied dose): Neg.
GI tract lesions at necropsy or histopathologic evaluation (result in words) ([4]; intravenously administered isatoribine): No lesions were seen in the GI tract

CC(C)[C@H](N)C(=O)OC[C@H]1O[C@@H](n2c(=O)sc3c(O)nc(N)nc32)[C@H](O)[C@@H]1O [Compound 3, 5-Amino-3-(5′-O-L-valinyl-β-D-ribofuranosyl)thiazolo[4,5-d]pyrimidine-2,7-dione Dihydrochloride]
interferon in plasma (result in words) ([3]; mice dosed orally with val-isatoribine in bicarbonate, equivalent to 50 mg/kg isatoribine): interferon was readily measurable at 1.0 hour, 1.5 hours, and 2.0 hours after dosing
mice with detectable interferon in plasma, of the mice used [3]: 10 of the 30
increase of the magnitude of both the average and peak interferon response over isatoribine ([3]; mice, oral dosing, Tables 1-3): twofold
maximum concentrations of isatoribine after oral dosing compared to isatoribine itself [5]: at least doubled
Emesis or loose stool [4, 9]: Neg.
GI lesions or irritation [4, 9]: Neg.
Emesis or loose stool [4, 10]: Neg.
GI lesions or irritation [4, 10]: Neg.
Emesis or loose stool [4, 11]: Neg.
GI lesions or irritation [4, 11]: Neg.
Emesis or loose stool [4, 12]: Neg.
GI lesions or irritation [4, 12]: Neg.
GI lesions or irritation ([4]; oral val-isatoribine, 130 mg/kg isatoribine equivalent applied dose): Neg.
GI lesions or irritation ([4]; oral val-isatoribine, 260 mg/kg isatoribine equivalent applied dose): Neg.
GI lesions or irritation ([4]; oral val-isatoribine, 390 mg/kg isatoribine equivalent applied dose): Neg.
GI lesions (result in words) ([4]; orally administered val-isatoribine): No GI lesions were found

COc1nc(N)nc2c1sc(=O)n2[C@@H]1O[C@H](CO)[C@@H](O)[C@H]1O [Compound 14, 5-Amino-3-β-D-ribofuranosyl-7-methoxy-thiazolo[4,5-d]pyrimidin-2-one]
melting point: > 160 °C (dec.)

Nc1nc(N)c2sc(=O)n([C@@H]3O[C@H](CO)[C@@H](O)[C@H]3O)c2n1 [Compound 15, 5,7-Diamino-3-β-D-ribofuranosylthiazolo[4,5-d]pyrimidin-2-one]
melting point: > 155 °C (dec.)

CNc1nc(N)nc2c1sc(=O)n2[C@@H]1O[C@H](CO)[C@@H](O)[C@H]1O [Compound 18]
melting point: > 108 °C

CN(C)c1nc(N)nc2c1sc(=O)n2[C@@H]1O[C@H](CO)[C@@H](O)[C@H]1O [Compound 20, 5-Amino-7-dimethylamino-3-β-D-ribofuranosylthiazolo[4,5-d]pyrimidin-2-one]
melting point: > 112 °C

Nc1nc(NC2CCCC2)c2sc(=O)n([C@@H]3O[C@H](CO)[C@@H](O)[C@H]3O)c2n1 [Compound 22, 5-Amino-7-cyclopentylamino-3-β-D-ribofuranosylthiazolo[4,5-d]pyrimidin-2-one]
melting point: > 108 °C (dec.)

Nc1nc(N2CCCC2)c2sc(=O)n([C@@H]3O[C@H](CO)[C@@H](O)[C@H]3O)c2n1 [Compound 23, 5-Amino-7-pyrrolidino-3-β-D-ribofuranosylthiazolo[4,5-d]pyrimidin-2-one]
melting point: > 112.4 °C (dec.)

CC(=O)OC[C@H]1O[C@@H](n2c(=O)sc3cnc(N)nc32)[C@H](OC(C)=O)[C@@H]1OC(C)=O [Compound 78, 5-Amino-3-(2′,3′,5′-tri-O-acetyl-β-D-ribofuranosyl)-3H-thiazolo[4,5-d]pyrimidin-2-one]
Caco2 transport compared with 79 (result in words) (Caco-2 cells): significantly improved transport over 79
Monkey Hepatocytes [6]: 20%
conversion to 1 compared with 79 (result in words) [6]: more extensively converted to 1 than is 79

Nc1ncc2sc(=O)n([C@@H]3O[C@H](CO)[C@@H](O)[C@H]3O)c2n1 [Compound 79, 5-Amino-3-β-D-ribofuranosyl-3H-thiazolo-[4,5-d]pyrimidin-2-one]
melting point: 220 °C (dec.)
Monkey Hepatocytes [6]: 10%

CC(=O)O[C@@H]1[C@H](OC(C)=O)[C@@H](CO)O[C@H]1n1c(=O)sc2cnc(N)nc21 [Compound 89, 5-Amino-3-(2′,3′-di-O-acetyl-β-D-ribofuranosyl)-3H-thiazolo[4,5-d]pyrimidin-2-one]
Caco2 transport compared with 79 (result in words) (Caco-2 cells): significantly improved transport over 79
Monkey Hepatocytes [6]: 45%
conversion to 1 compared with 79 (result in words) [6]: more extensively converted to 1 than is 79

From patent US7943759B2, “3-β-D-ribofuranosylthiazolo[4-5-d]pyrimidine nucleosides and uses thereof” (Anadys Pharmaceuticals, Inc., priority 2001, dated 2011)
